# Test results: PMC7053711, “A G protein–coupled receptor mediates neuropeptide-induced oocyte maturation in the jellyfish Clytia” (PLoS Biology, 2020)
# Peptide text beside a SMILES is read from it.
# Tests used:
# [1] = system: fully grown oocytes isolated from WT gonads; assay: Oocyte maturation assay, wild-type isolated oocytes (GVBD); format: cell-based, Clytia hemisphaerica; conditions: for Oocyte maturation (number) / Percentage of Oocytes maturing: 4mM BrcAMP, wild type
# From the text: (§1) Fig 4 Oocyte maturation failure in MIHR mutant medusae. Oocyte maturation assays performed using isolated gonads (A, B) or isolated oocytes (C) from MIHR mutant jellyfish compared to WT. In A and C, bar heights represent mean percentages of 3 independent experiments and error bars show standard deviations. Total gonad or oocyte numbers for each treatment are indicated in gray. (A) Spawning response of isolated gonads from WT and n5-23 female medusae. Three treatments were compared as indicated above each panel: Light: light stimulation after incubation in the dark; MIH: treatment of light-maintained gonads with 100 nM WPRPamide; cAMP: treatment of light-maintained gonads with 4 mM Br-cAMP. […] Full datasets from three independent experiments are available in S3 Data. (B) Light microscope images illustrating gonads from an equivalent experiment performed with n5-13 female MIHR mutant medusae 120 minutes after the indicated treatments. Scale bar: 500 μm. […] Full datasets from 3 independent experiments are available in S3 Data. Br-cAMP, bromoadenosine 3′,5′-cyclic monophosphate; cAMP, cyclic adenosine monophosphate; KO, knockout; MIH, maturation-inducing hormone; MIHR, MIH receptor; WT, wild-type.
# (§2) Fully grown oocytes were isolated manually from dissected gonads of wild-type and MIHR KO mutant jellyfish prepared as above. Maturation assays were performed in wells of 96-well plates or small plastic petri dishes lined with 2% agarose in MFSW. Spontaneous maturation occurs at a low frequency in control oocytes. To test MIH-induced maturation, 10 μL WPRPamide from 1 μM solution in MFSW was added to a final concentration of 100 nM. In some experiments, Br-cAMP from a 20 mM stock in H2O was used at a final concentration of 4 mM. GVBD was scored at 30 minutes, every 5 minutes, depending on experiments.
# (§3) Supplementary file pbio.3000614.s013.xlsx: S3 Data Numerical data corresponding to Fig 4A and 4C. The first tab collects all the raw data from 3 independent gonad spawning assays. Information corresponding to the Fisher exact tests is also shown. […] The means and standard deviations were used to prepare the graph in Fig 4C. Information corresponding to the Fisher exact tests is also shown. (XLSX) Click here for additional data file.
# [2] = system: fully grown oocytes isolated from MIHR mutant (n5-23) gonads; assay: Oocyte maturation assay, MIHR mutant isolated oocytes (GVBD); format: cell-based, Clytia hemisphaerica; conditions: for Oocyte maturation (number) / Percentage of Oocytes maturing: 4mM BrcAMP, MIH R K.O.
# From the text: as §1, §2, §3
# [3] = system: MIHR mutant (n5-23, n5-13) isolated female gonads; assay: Gonad spawning assay, MIHR mutant isolated gonads; set-up: species or system Clytia hemisphaerica; conditions: for Gonads spawning (number) / Percentage of spawning gonads: 4mM BrcAMP, MIH R K.O.
# Protocol: (§4) We performed a series of oocyte maturation and spawning assays, comparing the responses of wild-type and MIHR mutant isolated gonads and oocytes to different stimuli (Fig 4).
# (§5) Sexually mature MIHR mutant medusae from colonies n5-13 and n5-23 and wild-type medusae were cultured on the same day–night cycle. Individual gonads were dissected in the evening after afternoon spawning. To test the light response, one group of each was transferred to 100 μL MFSW in wells of 96-well plastic plates, covered overnight, and re-exposed to white light the following day. To test responses to MIH and cAMP, other groups of dissected gonads were cultured overnight in constant light, then transferred to 96-well plastic plates for two hours. MIH was added to wells as an equal volume of 200 nM WPRPamide (GenScript) stock in MFSW was added to give a final concentration of 100 nM. Alternatively, a stock of 20 mM bromo adenosine 3′,5′cyclic monophosphate (Br-cAMP–Fluka; Sigma Aldrich) in distilled water was added to give a final concentration of 4 mM. Gonads were washed after 5 minutes incubation in Br-cAMP. Oocyte maturation was scored after 30 minutes as germinal vesicle breakdown (GVBD), i.e., visible dissolution of the oocyte nuclear membrane upon entry into M phase, which in all cases was followed by spawning about 1 hour later.
# as §3
# [4] = system: wild-type (WT) isolated female gonads; assay: Gonad spawning assay, wild-type isolated gonads; set-up: species or system Clytia hemisphaerica; conditions: for Gonads spawning (number) / Percentage of spawning gonads: 4mM BrcAMP
# Protocol: as §4, §5, §3
# Clytia MIHR [5] = assay: Dose–response curves of Clytia MIHR, luminescence (CHO-K1 cells, Gα-16, GFP-apoaequorin); format: cell-based, Clytia hemisphaerica; set-up: key to Span (best-fit value) / Bottom (best-fit value): % activation, normalized to fitted upper plateau (100%); conditions: for EC50: four-parameter fit, variable slope, triplicate; for HillSlope / LogEC50: best-fit value; for Span / Top / Bottom: best-fit value (luminescence); for EC50 / relative activity on MIHR: three independent dose–response experiments
# Protocol: The Clytia MIH amidated peptides are produced from two precursor genes Che-pp4 (generating multiple copies of WPRAamide, WPRYamide, and WPRPamide) and Che-pp1 (multiple copies of WPRPamide and RPRGamide).
# (§6) Cell culture GPCR ligand response assays were performed as described. Briefly, CHO-K1 cells were cultured in Ham’s F12 Nut Mix medium (Thermo Fisher Scientific) with 10% foetal bovine serum. Cells were seeded in 96-well plates at approximately 10,000 cells/well and transfected the following day with pcDNA3.1(+) plasmids encoding each of the 16 candidate Clytia GPCRs (S2 Text), the promiscuous Gα-16 protein [65], and a reporter construct GFP-apoaequorin [66] (60 ng each) using the transfection reagent TurboFect (Thermo Fisher Scientific). After 2 days of expression, the medium was removed and replaced with Hank’s balanced salt solution (HBSS) supplemented with 1.8 mM Ca2+, 10 mM glucose, and […] coelenterazine h (Promega, Madison, WI). After incubation at 37 °C for 2 hours, cells were tested by adding synthetic peptides (GenScript) in HBSS supplemented with 1.8 mM Ca2^+ and 10 mM glucose. A list of all synthetic peptides used is provided in S2 Table. Luminescence was recorded for 45 seconds in a plate reader (BioTek Synergy Mx or Synergy H4; BioTek, Winooski, VT). Data were integrated over the 45-second measurement period and recorded as technical triplicates in each case. Data were normalized using the response of Platynereis FLamide receptor to 1 μM AKYFL-NH2 [28]. Dose–response curves were obtained using concentrations between 0.01 nM and 100 μM for each peptide. Data for dose–response curves were recorded in triplicate for each concentration and the experiment was repeated independently 3 times. Dose–response curves were fitted with a four-parameter curve using Prism 6 (GraphPad, La Jolla, CA) and were normalized to the calculated upper plateau values (100% activation).
# Supplementary file pbio.3000614.s012.xlsx: S2 Data Numerical data corresponding to Fig 1C. The first three tabs show statistical values obtained using Prism 6 software (GraphPad, La Jolla, CA) from the raw luminescence values for 3 independent dose–response experiments. The raw luminescence values are shown, as well as the values normalized with respect to the maximum. […] MIH, maturation-inducing hormone. (XLSX) Click here for additional data file.
# Clytia MIHR [6] = assay: GPCR deorphanization assay, luminescence response to peptides at 1 μM (CHO-K1 cells, Gα-16, GFP-apoaequorin); format: cell-based, Clytia hemisphaerica; conditions: peptide 1E-6M, normalised to Platynereis FLamide receptor + 1 μM AKYFL-NH2, n = 3
# From the text: We used a cell culture–based GPCR deorphanization assay to identify the MIH receptor from our candidate shortlist. cDNAs for each candidate were transfected into Chinese Hamster ovary K1 (CHO-K1) cells along with the promiscuous Gα protein Gα-16, and an aequorin-GFP luminescence reporter that measures Ca^2+ mobilization downstream of this heterologous Gα protein [27, 28]. We first screened the 16 candidate Clytia GPCRs against a mixture of 33 synthetic amidated peptides (including MIHs) predicted to be generated from previously identified putative Clytia neuropeptide precursors and one additional one identified from transcriptome data. Given our imperfect knowledge of pro-peptide processing in cnidarians, some of the synthetic peptides may not correspond to endogenous peptides. Only one of the 16 GPCRs was activated by this peptide mixture. This receptor responded well to all 4 synthetic Clytia MIH tetrapeptides, as well as to related Cladonema MIH peptides that can also activate Clytia oocyte maturation, but not to other Clytia peptide mixtures or poorly active MIH penta-/tripeptides. We termed this Clytia GPCR the Maturation Inducing Hormone Receptor (MIHR). The activity of individual peptides at 1 μM to stimulate the MIHR closely matched their in vivo ability to induce oocyte maturation (Fig 1B).
# as §6
# Supplementary file pbio.3000614.s011.xlsx: S1 Data Numerical data corresponding to Fig 1B. Raw luminescence values obtained in triplicate for each of the neuropeptide combinations tested against the MIHR in the deorphanization assay are provided. In the right-hand table, the raw luminescence values obtained in quadruple for the positive and negative controls are provided. In the lower table, means and standard errors of the mean of the luminescence values obtained for each neuropeptide combination and controls are also shown, as well as the values normalized to the positive control, which were used to prepare the graph shown in Fig 1B. MIHR, MIH receptor. (XLSX) Click here for additional data file.
# [7] = BrcAMP, pooled n=59, Fisher exact test vs MIHR KO 0.215946, not significant at p < .01
# [8] = BrcAMP, pooled n=92, Fisher exact test vs WT 0.215946, not significant at p < .01
# [9] = BrcAMP, pooled n=29, Fisher exact test vs WT not significant at p < .01
# [10] = wild type, replicate 1, total 12
# [11] = wild type, replicate 2, total 10
# [12] = wild type, replicate 3, total 10
# [13] = BrcAMP, pooled n=32, Fisher exact test vs MIHR KO not significant at p < .01
# [14] = log(agonist) vs. response, variable slope (four parameters), fit of third dataset
compound,measurement,setting,value
Nc1ncnc2c1nc(Br)n2[C@@H]1O[C@@H]2COP(=O)(O)O[C@H]2[C@H]1O [BrcAMP],Oocyte maturation (number),"[1]; replicate 1, total 15",15
same,Percentage of Oocytes maturing,"[1]; replicate 1, total 15",100.00
same,Oocyte maturation (number),"[1]; replicate 2, total 26",21
same,Percentage of Oocytes maturing,"[1]; replicate 2, total 26",80.77
same,Oocyte maturation (number),"[1]; replicate 3, total 18.00",13
same,Percentage of Oocytes maturing,"[1]; replicate 3, total 18.00",72.22
same,"% oocytes maturing, pooled","[1]; BrcAMP, WT, pooled n=59",83.0508%
same,"Maturing oocytes, WT YES",[1]; [7],49
same,"Non-maturing oocytes, WT NO",[1]; [7],10
same,Oocyte maturation (number),"[2]; replicate 1, total 31",30
same,Percentage of Oocytes maturing,"[2]; replicate 1, total 31",96.77
same,Oocyte maturation (number),"[2]; replicate 2, total 14",12
same,Percentage of Oocytes maturing,"[2]; replicate 2, total 14",85.71
same,Oocyte maturation (number),"[2]; replicate 3, total 47.00",41
same,Percentage of Oocytes maturing,"[2]; replicate 3, total 47.00",87.23
same,"% oocytes maturing, pooled","[2]; BrcAMP, MIHR KO, pooled n=92",90.2174%
same,"Maturing oocytes, MIHR KO YES",[2]; [8],83
same,"Non-maturing oocytes, MIHR KO NO",[2]; [8],9
same,Gonads spawning (number),"[3]; replicate 1, total 4",4
same,Percentage of spawning gonads,"[3]; replicate 1, total 4",100
same,Gonads spawning (number),"[3]; replicate 2, total 18",18
same,Percentage of spawning gonads,"[3]; replicate 2, total 18",100
same,Gonads spawning (number),"[3]; replicate 3, total 7",7
same,Percentage of spawning gonads,"[3]; replicate 3, total 7",100
same,Percentage of spawning gonads (summary),"[3]; BrcAMP, MIHR K.O., summary of 3 replicates",100
same,"Non-spawning gonads, MIHR KO NO",[3]; [9],0
same,"Spawning gonads, MIHR KO YES",[3]; [9],29
same,Gonads spawning (number),[4]; [10],12
same,Percentage of spawning gonads,[4]; [10],100
same,Gonads spawning (number),[4]; [11],10
same,Percentage of spawning gonads,[4]; [11],100
same,Gonads spawning (number),[4]; [12],10
same,Percentage of spawning gonads,[4]; [12],100
same,"Non-spawning gonads, WT NO",[4]; [13],0
same,"Spawning gonads, WT YES",[4]; [13],32
same,Percentage of spawning gonads (summary),"[4]; BrcAMP, wild type, summary of 3 replicates",100
N=C(N)NCCC[C@H](NC(=O)[C@@H]1CCCN1C(=O)[C@@H](N)CCCNC(=N)N)C(=O)NCC(N)=O [RPRGa] (H-RPRG-NH2; N-terminus assumed),EC50,Clytia MIHR [5]; dataset/experiment 1,0.724 µM
same,EC50,Clytia MIHR [5]; dataset/experiment 2,2.21 µM
same,HillSlope,Clytia MIHR [5]; first dataset,1.15
same,LogEC50,Clytia MIHR [5]; first dataset,-6.14
same,Span,Clytia MIHR [5]; first dataset,80378
same,Top,Clytia MIHR [5]; first dataset,82566
same,HillSlope (best-fit value),Clytia MIHR [5]; [14],1.139
same,LogEC50 (best-fit value),Clytia MIHR [5]; [14],-5.859
same,Span (best-fit value),Clytia MIHR [5]; [14],89.45
same,HillSlope,Clytia MIHR [5]; second dataset,0.9524
same,LogEC50,Clytia MIHR [5]; second dataset,-5.656
same,Span,Clytia MIHR [5]; second dataset,33216
same,Top,Clytia MIHR [5]; second dataset,36059
same,EC50 / relative activity on MIHR,Clytia MIHR [5],the lowest
same,"Normalised response (to positive control), mean",Clytia MIHR [6],0.2052
N=C(N)NCCC[C@H](NC(=O)[C@@H]1CCCN1C(=O)[C@@H](N)CCCNC(=N)N)C(=O)N[C@@H](Cc1ccc(O)cc1)C(N)=O [RPRYa] (H-RPRY-NH2; N-terminus assumed),EC50,Clytia MIHR [5]; dataset/experiment 1,0.0577 µM
same,EC50,Clytia MIHR [5]; dataset/experiment 2,0.164 µM
same,HillSlope,Clytia MIHR [5]; first dataset,1.301
same,LogEC50,Clytia MIHR [5]; first dataset,-7.239
same,Bottom,Clytia MIHR [5]; first dataset,997.1
same,Span,Clytia MIHR [5]; first dataset,60319
same,Top,Clytia MIHR [5]; first dataset,61316
same,Bottom (best-fit value),Clytia MIHR [5]; [14],5.512
same,HillSlope (best-fit value),Clytia MIHR [5]; [14],1.159
same,LogEC50 (best-fit value),Clytia MIHR [5]; [14],-6.887
same,Span (best-fit value),Clytia MIHR [5]; [14],94.5
same,HillSlope,Clytia MIHR [5]; second dataset,1.165
same,LogEC50,Clytia MIHR [5]; second dataset,-6.785
same,Bottom,Clytia MIHR [5]; second dataset,2011
same,Span,Clytia MIHR [5]; second dataset,27358
same,Top,Clytia MIHR [5]; second dataset,29369
same,EC50 / relative activity on MIHR,Clytia MIHR [5],highest activity
same,"Normalised response (to positive control), mean",Clytia MIHR [6],0.39
AWPRP-NH2 [AWPRPa],"Normalised response (to positive control), mean",Clytia MIHR [6],0.02128
"RPRP-NH2 [RPRPa, Cladonema MIH tetrapeptide, RPRP-NH2]","Normalised response (to positive control), mean",Clytia MIHR [6],0.33
